Tests used:
[1] = cited from earlier work
Caco-2 monolayers = assay: Transepithelial transport through Caco-2 monolayers; settings: apical pH 6.0 MES to basolateral pH 7.4 HEPES, 21 days post-seeding
cowpox virus = format: cell-based; settings: read-out: EC50 Cowpox
vaccinia virus = format: cell-based; settings: read-out: EC50 Vaccinia
[2] = rat
[3] = molecular target: T1, human PEPT1 transporter (HeLa/hPEPT1 cells) (Homo sapiens, UniProt P46059); assay: Direct uptake in HeLa cells overexpressing hPEPT1; settings: fold uptake over control cells not expressing PEPT1
T1 sequence (P46059 1-708): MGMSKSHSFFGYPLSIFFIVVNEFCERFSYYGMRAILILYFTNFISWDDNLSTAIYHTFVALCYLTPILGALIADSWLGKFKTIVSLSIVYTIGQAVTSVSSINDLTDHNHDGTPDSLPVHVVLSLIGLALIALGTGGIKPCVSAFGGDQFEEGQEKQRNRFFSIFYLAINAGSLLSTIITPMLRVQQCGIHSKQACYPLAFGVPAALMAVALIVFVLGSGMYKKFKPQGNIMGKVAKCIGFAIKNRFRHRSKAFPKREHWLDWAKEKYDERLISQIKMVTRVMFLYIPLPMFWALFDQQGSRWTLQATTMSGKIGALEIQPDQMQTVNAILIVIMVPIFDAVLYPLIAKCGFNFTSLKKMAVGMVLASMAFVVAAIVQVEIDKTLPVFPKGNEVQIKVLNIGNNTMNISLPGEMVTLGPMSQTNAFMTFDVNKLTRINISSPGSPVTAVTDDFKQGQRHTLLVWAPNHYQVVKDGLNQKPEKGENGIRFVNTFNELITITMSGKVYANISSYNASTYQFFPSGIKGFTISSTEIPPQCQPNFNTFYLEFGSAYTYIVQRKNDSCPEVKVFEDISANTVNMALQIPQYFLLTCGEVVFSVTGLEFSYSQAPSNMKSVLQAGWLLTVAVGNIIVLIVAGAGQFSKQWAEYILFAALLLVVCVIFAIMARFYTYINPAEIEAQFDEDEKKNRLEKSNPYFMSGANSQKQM

[4] = cited from earlier work; remark: listed apart in the source

Compound	Caco-2 permeability (Caco-2 monolayers)	hPEPT1 control (uptake ratio HeLa/hPEPT1 over HeLa control) [3]	other results
1-Beta-D-arabinofuranosyladenine [Vidarabine]	0.083 cm/s × 10^6	–	Solubility in water [1]: ~ 0.47 mg/ml; EC50 (cowpox virus): 12.6 µM; EC50 (vaccinia virus): 6.2 µM; T1/2 Plasma [2]: 25.8 min
CC(C)[C@@H](N)C(=O)OC[C@H]1O[C@@H](n2cnc3c(N)ncnc32)[C@@H](O)[C@@H]1O [Compound 7a]	0.601 cm/s × 10^6	–	–
CC(C)[C@H](N)C(=O)OC[C@H]1O[C@@H](n2cnc3c(N)ncnc32)[C@@H](O)[C@@H]1O [Compound 7i]	–	20.7	–
CC[C@H](C)[C@H](N)C(=O)OC[C@H]1O[C@@H](n2cnc3c(N)ncnc32)[C@@H](O)[C@@H]1O [Compound 7k]	1.026 cm/s × 10^6	26.9	–
Nc1ncnc2c1ncn2[C@@H]1O[C@H](COC(=O)[C@@H](N)Cc2ccccc2)[C@@H](O)[C@@H]1O [Compound 7l]	0.668 cm/s × 10^6	–	–
CC(C)[C@H](N)C(=O)OCCOCn1cnc2c(=O)[nH]c(N)nc21 [Valacyclovir]	–	19.0	–
O=c1[nH]cnc2c1ncn2[C@@H]1O[C@H](CO)[C@@H](O)[C@@H]1O [ara-H, ara-hypoxanthine]	–	–	Fold less potent than vidarabine (antiviral activity) [4]: at least 10 fold

Reference: PMC2642980 (Bioorganic & medicinal chemistry letters, 2008)
